According to patent US7994185B2, “Benzene sulfonamide thiazole and oxazole compounds” (Glaxo Smith Kline LLC, priority 2008, dated 2011):
Like-named read-outs stand apart in the source and are kept apart here.

What was measured:
[1] = target: T1, BRAFV600E full-length (amino acids 2-766) (Homo sapiens, UniProt P15056, V600E); assay: B-Raf Accelerated MEK ATPase assay (BRAMA); format: biochemical; conditions: categorized
T1 construct: His6-tagged BRAFV600E full-length (amino acids 2-766); His6; made in house; host or cells: baculovirus expression system (insect cells)
T1 sequence (P15056 2-766 V600E): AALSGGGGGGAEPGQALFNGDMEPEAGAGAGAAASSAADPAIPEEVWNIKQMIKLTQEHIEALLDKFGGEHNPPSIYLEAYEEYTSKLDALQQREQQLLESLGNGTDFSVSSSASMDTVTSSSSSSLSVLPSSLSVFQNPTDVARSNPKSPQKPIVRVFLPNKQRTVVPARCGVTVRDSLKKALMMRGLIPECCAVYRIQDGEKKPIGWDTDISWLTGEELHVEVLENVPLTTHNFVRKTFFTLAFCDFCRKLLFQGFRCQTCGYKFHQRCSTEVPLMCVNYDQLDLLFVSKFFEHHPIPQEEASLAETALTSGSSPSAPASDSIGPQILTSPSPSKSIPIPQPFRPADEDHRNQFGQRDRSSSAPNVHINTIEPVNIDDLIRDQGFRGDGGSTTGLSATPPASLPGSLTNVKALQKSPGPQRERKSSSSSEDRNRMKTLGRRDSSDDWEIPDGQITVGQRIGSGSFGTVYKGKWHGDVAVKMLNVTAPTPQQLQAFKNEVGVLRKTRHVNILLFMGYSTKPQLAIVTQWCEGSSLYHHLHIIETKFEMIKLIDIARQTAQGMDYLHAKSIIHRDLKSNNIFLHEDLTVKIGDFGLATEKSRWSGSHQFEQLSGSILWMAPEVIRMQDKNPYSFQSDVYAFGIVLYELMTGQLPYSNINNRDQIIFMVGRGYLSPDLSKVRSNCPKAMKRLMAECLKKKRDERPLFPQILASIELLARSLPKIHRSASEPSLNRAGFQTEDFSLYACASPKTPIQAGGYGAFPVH
Outline: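 Coupled-enzyme readout: ADP generated by MEK-mediated ATP hydrolysis, uncoupled from ERK phosphorylation, is linked to NADH oxidation through pyruvate kinase and lactate dehydrogenase.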

[2] = system: Human colon tumor cells (Colo205); assay: Cell growth inhibition assay (CellTiter-Glo), Colo205; format: cell-based
Outline: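 Read-out was CellTiter-Glo luminescence (total ATP as a cell-number surrogate), expressed as % inhibition against DMSO vehicle wells. Before that, cells grown in RPMI/10% FBS were treated for 3 days at 37 °C with ten 1:3-spaced compound concentrations, final DMSO 0.2%.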

[3] = system: Human melanoma cancer cells (SK-MEL-28); assay: Cell growth inhibition assay (CellTiter-Glo), SK-MEL-28; format: cell-based
[4] = B-Raf Activity, Table 1a, highest pIC50 for the one or more runs
[5] = B-Raf pIC50, Table 1b, later runs, average pIC50 for the one or more runs
[6] = COLO 205, 72 h, Table 2a, 3 days incubation, read-out: Activity in Colo205 Tumor Cells
[7] = COLO 205, Table 2b, later runs, average for the one or more runs, categorized, read-out: IC50 for Colo205
[8] = SK-MEL-28, 72 h, Table 3a, 3 days incubation, read-out: Activity in SK-MEL-28 Tumor Cells
[9] = SK-MEL-28, Table 3b, later runs, average for the one or more runs, categorized, read-out: IC50 for SK-MEL-28
[10] = Table 1b, later runs, average pIC50 for the one or more runs, read-out: B-Raf pIC50 (converted)

| SMILES | IC50 [1, 4] | IC50 [1, 5] | IC50 [2, 6] | IC50 [2, 7] | IC50 [3, 8] | IC50 [3, 9] | IC50 [1, 10] |
| --- | --- | --- | --- | --- | --- | --- | --- |
| CC(C)c1nc(-c2ccc(F)c(NS(=O)(=O)c3cc(F)ccc3F)c2)c(-c2ccnc(NCC3CCN(C(=O)OC(C)(C)C)CC3)n2)s1 [Example 127] | < 0.1 µM | 0.0316 to 1 µM | > 1 µM | 1 to 10 µM | > 1 µM | 1 to 10 µM | – |
| CC(C)c1nc(-c2ccc(F)c(NS(=O)(=O)c3cc(F)ccc3F)c2)c(-c2ccnc(NCC3CCNCC3)n2)s1 [Example 128] | < 0.1 µM | – | > 1 µM | 1 to 10 µM | > 1 µM | – | 0.00316 to 0.0316 µM |
| CC(C)c1nc(-c2ccc(F)c(NS(=O)(=O)c3cc(F)ccc3F)c2)c(-c2ccnc(NCC3CCN(S(C)(=O)=O)CC3)n2)s1 [Example 129] | < 0.1 µM | – | 0.1 to 1 µM | 0.1 to 1 µM | 0.1 to 1 µM | 0.1 to 1 µM | 0.00316 to 0.0316 µM |
| CC(C)(C)c1nc(-c2cccc(NS(=O)(=O)c3cc(F)ccc3F)c2F)c(-c2ccnc(NC3CCN(S(C)(=O)=O)CC3)n2)s1 [Example 130] | < 0.1 µM | ≤ 0.00316 µM | < 0.1 µM | < 0.1 µM | < 0.1 µM | < 0.1 µM | – |
| CC(C)c1nc(-c2ccc(F)c(NS(=O)(=O)c3cc(F)ccc3F)c2)c(-c2ccnc(NCCN3CCCCC3)n2)s1 [Example 131] | < 0.1 µM | 0.0316 to 1 µM | > 1 µM | – | > 1 µM | 1 to 10 µM | – |
| CC(C)c1nc(-c2ccc(F)c(NS(=O)(=O)c3cc(F)ccc3F)c2)c(-c2ccnc(NC3CC(C)(C)N(C)C(C)(C)C3)n2)s1 [Example 132] | < 0.1 µM | ≤ 0.00316 µM | 0.1 to 1 µM | 0.1 to 1 µM | 0.1 to 1 µM | 0.1 to 1 µM | – |
| CC(C)c1nc(-c2ccc(F)c(NS(=O)(=O)c3cc(F)ccc3F)c2)c(-c2ccnc(N[C@H]3CCCN(C(=O)OC(C)(C)C)C3)n2)s1 [Example 133] | 0.1 to 1 µM | 0.0316 to 1 µM | > 1 µM | 1 to 10 µM | > 1 µM | 1 to 10 µM | – |
| CC(C)CNc1nccc(-c2sc(C(C)(C)C)nc2-c2cccc(NS(=O)(=O)c3c(F)cccc3F)c2F)n1 [Example 134] | < 0.1 µM | – | 0.1 to 1 µM | 0.1 to 1 µM | 0.1 to 1 µM | 0.1 to 1 µM | 0.00316 to 0.0316 µM |
| CC(C)Nc1nccc(-c2sc(C(C)(C)C)nc2-c2cccc(NS(=O)(=O)c3c(F)cccc3F)c2F)n1 [Example 135] | < 0.1 µM | ≤ 0.00316 µM | 0.1 to 1 µM | 0.1 to 1 µM | < 0.1 µM | < 0.1 µM | – |
| CC(C)Nc1nccc(-c2sc(N3CCOCC3)nc2-c2cccc(NS(=O)(=O)c3c(F)cccc3F)c2F)n1 [Example 136] | < 0.1 µM | – | 0.1 to 1 µM | 0.1 to 1 µM | 0.1 to 1 µM | 0.1 to 1 µM | 0.00316 to 0.0316 µM |
| CC(C)(C)c1nc(-c2cccc(NS(=O)(=O)c3cc(F)ccc3F)c2F)c(-c2ccnc(NC3CCOCC3)n2)s1 [Example 138] | < 0.1 µM | ≤ 0.00316 µM | < 0.1 µM | < 0.1 µM | > 1 µM | < 0.1 µM | – |
| CC(C)CNc1nccc(-c2sc(N3CCOCC3)nc2-c2ccc(F)c(NS(=O)(=O)c3cc(F)ccc3F)c2)n1 [Example 139] | < 0.1 µM | – | < 0.1 µM | 0.1 to 1 µM | < 0.1 µM | 0.1 to 1 µM | 0.00316 to 0.0316 µM |
| CC(C)c1nc(-c2ccc(F)c(NS(=O)(=O)c3ccccc3F)c2)c(-c2ccnc(N[C@H]3CC[C@H](NS(C)(=O)=O)CC3)n2)s1 [Example 140] | < 0.1 µM | – | < 0.1 µM | < 0.1 µM | < 0.1 µM | < 0.1 µM | 0.00316 to 0.0316 µM |
| CC(C)c1nc(-c2ccc(F)c(NS(=O)(=O)c3c(F)cccc3F)c2)c(-c2ccnc(N[C@H]3CC[C@H](NS(C)(=O)=O)CC3)n2)s1 [Example 141] | < 0.1 µM | – | < 0.1 µM | < 0.1 µM | < 0.1 µM | < 0.1 µM | 0.00316 to 0.0316 µM |
| Nc1nccc(-c2sc(N3CCS(=O)(=O)CC3)nc2-c2cccc(NS(=O)(=O)c3cc(F)ccc3F)c2F)n1 [Example 142] | < 0.1 µM | ≤ 0.00316 µM | < 0.1 µM | < 0.1 µM | < 0.1 µM | < 0.1 µM | – |
| C[C@@H]1CN(c2nc(-c3cccc(NS(=O)(=O)c4c(F)cccc4F)c3F)c(-c3ccnc(N)n3)s2)C[C@H](C)O1 [Example 143] | < 0.1 µM | – | 0.1 to 1 µM | 0.1 to 1 µM | 0.1 to 1 µM | 0.1 to 1 µM | 0.00316 to 0.0316 µM |
| Nc1nccc(-c2sc(C3CCCCC3)nc2-c2cccc(NS(=O)(=O)c3cc(F)ccc3F)c2F)n1 [Example 144] | < 0.1 µM | ≤ 0.00316 µM | < 0.1 µM | < 0.1 µM | < 0.1 µM | < 0.1 µM | – |
| Cc1ccc(F)c(S(=O)(=O)Nc2cccc(-c3nc(C(C)(C)C)sc3-c3ccnc(N)n3)c2F)c1 [Example 145] | < 0.1 µM | 0.0316 to 1 µM | 0.1 to 1 µM | 0.1 to 1 µM | 0.1 to 1 µM | 0.1 to 1 µM | – |
| Cc1ccc(S(=O)(=O)Nc2cccc(-c3nc(C(C)(C)C)sc3-c3ccnc(N)n3)c2F)cc1 [Example 146] | < 0.1 µM | 0.0316 to 1 µM | 0.1 to 1 µM | 0.1 to 1 µM | 0.1 to 1 µM | 0.1 to 1 µM | – |
| Cc1cccc(S(=O)(=O)Nc2cccc(-c3nc(C(C)(C)C)sc3-c3ccnc(N)n3)c2F)c1 [Example 147] | < 0.1 µM | 0.0316 to 1 µM | 0.1 to 1 µM | 0.1 to 1 µM | 0.1 to 1 µM | 0.1 to 1 µM | – |
| CC(C)c1nc(-c2ccc(F)c(NS(=O)(=O)c3ccco3)c2)c(-c2ccnc(NCCCS(C)(=O)=O)n2)s1 [Example 148] | < 0.1 µM | – | > 1 µM | 1 to 10 µM | > 1 µM | 1 to 10 µM | 0.00316 to 0.0316 µM |
| COc1ccc(F)cc1S(=O)(=O)Nc1cccc(-c2nc(C(C)C)sc2-c2ccnc(NCCS(C)(=O)=O)n2)c1 [Example 149] | < 0.1 µM | 0.0316 to 1 µM | 0.1 to 1 µM | 0.1 to 1 µM | 0.1 to 1 µM | 0.1 to 1 µM | – |
| COc1ccc(F)cc1S(=O)(=O)Nc1cccc(-c2nc(C(C)C)sc2-c2ccnc(NC3CCN(S(C)(=O)=O)CC3)n2)c1 [Example 150] | 0.1 to 1 µM | 0.0316 to 1 µM | 0.1 to 1 µM | 0.1 to 1 µM | 0.1 to 1 µM | 0.1 to 1 µM | – |
| CC(C)c1nc(-c2ccc(F)c(NS(=O)(=O)c3ccco3)c2)c(-c2ccnc(NC3CCN(S(C)(=O)=O)CC3)n2)s1 [Example 151] | < 0.1 µM | – | 0.1 to 1 µM | 0.1 to 1 µM | 0.1 to 1 µM | 0.1 to 1 µM | 0.00316 to 0.0316 µM |
| COc1ccc(F)cc1S(=O)(=O)Nc1cccc(-c2nc(C(C)C)sc2-c2ccnc(NCC(C)C)n2)c1F [Example 152] | < 0.1 µM | – | < 0.1 µM | < 0.1 µM | < 0.1 µM | < 0.1 µM | 0.00316 to 0.0316 µM |
